# Values quoted from earlier work as cited in article PMC7904743, “WIDOCK: a reactive docking protocol for virtual screening of covalent inhibitors” (Journal of Computer-Aided Molecular Design, 2021).
# Like-named read-outs stand apart in the source and are kept apart here.
# How the values were obtained:
# [1] = thiol reactivity, cited from earlier work
# NUDT7 = details: protein labeling at 200 μM; experimental actives if % labeling higher than 50%; cited from earlier work
# OTUB2 = details: experimental actives if % labeling higher than 50%, cited from earlier work
# [2] = natural log of average rate constant k
# [3] = natural logarithm of average rate constant
# [4] = natural log of average kinetic rate constant
# [5] = natural log of average rate constant
SMILES,"ln(avg k) [1, 2]","ln(avg k) [1, 3]",NUDT7 % labeling (NUDT7) [%],OTUB2 % labeling (OTUB2) [%],"ln(avg k) [1, 4]","ln(avg k) [1, 5]",OTUB2 % labeling (OTUB2; OTUB2 protein labeling) [%]
"O=C(CCl)NNC(=O)C1COc2ccccc2O1 (stereo not shown) [PCM-0102384, O=C(CCl)NNC(=O)C1COc2ccccc2O1]",-17.088,-17.088,0,27,,,
"O=C(CCl)NC(=O)NCC(F)(F)F [PCM-0103037, O=C(CCl)NC(=O)NCC(F)(F)F]",,,0,,-15.772,-15.772,30
"Cc1nc(-c2cccc(NC(=O)CCl)c2)cs1 [PCM-0102262, Cc1nc(-c2cccc(NC(=O)CCl)c2)cs1]",-15.670,-15.670,0,63,,,
"O=C(CCl)NCC(F)(F)F [PCM-0102456, O=C(CCl)NCC(F)(F)F]",-18.378,-18.378,0,0,,,
"O=C(CCl)N1CCN(c2ccc(O)cc2)CC1 [PCM-0102357, O=C(CCl)N1CCN(c2ccc(O)cc2)CC1]",-15.487,-15.487,0,0,,,
"O=C(CCl)N1CCN(Cc2ccccc2F)CC1 [PCM-0102387, O=C(CCl)N1CCN(Cc2ccccc2F)CC1]",-15.308,-15.308,0,32,,,
"Cc1ccsc1CNC(=O)CCl [PCM-0103075, Cc1ccsc1CNC(=O)CCl]",,,0,,-16.632,-16.632,55
"O=C(CCl)NNC(=O)c1ccccc1F [PCM-0102510, O=C(CCl)NNC(=O)c1ccccc1F]",-17.412,-17.412,0,52,,,
"CC1CC(C)CN(C(=O)CCl)C1 (stereo not shown) [PCM-0102789, CC1CC(C)CN(C(=O)CCl)C1]",,,0,,-16.705,-16.705,8
"CN(Cc1ccc(Cl)c(Cl)c1)C(=O)CCl [PCM-0102349, CN(Cc1ccc(Cl)c(Cl)c1)C(=O)CCl]",-15.496,-15.496,59,0,,,
"O=C(CCl)N(C1CCCC1)C1CCS(=O)(=O)C1 (stereo not shown) [PCM-0102313, O=C(CCl)N(C1CCCC1)C1CCS(=O)(=O)C1]",-15.397,-15.397,11,0,,,
"O=C(CCl)N1CCCCCCC1 [PCM-0102377, O=C(CCl)N1CCCCCCC1]",-15.780,-15.780,0,0,,,
"O=C(CCl)Nc1cccc(C(=O)O)c1 [PCM-0102696, O=C(CCl)Nc1cccc(C(=O)O)c1]",-16.586,-16.586,0,11,,,
"CC(C)(C)c1ccc(NC(=O)CCl)cc1 [PCM-0102622, CC(C)(C)c1ccc(NC(=O)CCl)cc1]",-15.995,-15.995,0,32,,,
"CC(C)NC(=O)NC(=O)CCl [PCM-0102504, CC(C)NC(=O)NC(=O)CCl]",-16.238,-16.238,0,0,,,
"Cc1n[nH]c(C)c1NC(=O)CCl [PCM-0102588, Cc1n[nH]c(C)c1NC(=O)CCl]",-16.991,-16.991,0,0,,,
"Cc1ccc(NC(=O)CCl)cc1S(N)(=O)=O [PCM-0102177, Cc1ccc(NC(=O)CCl)cc1S(N)(=O)=O]",-15.256,-15.256,10,27,,,
"COC(=O)c1cc(NC(=O)CCl)cn1C [PCM-0102545, COC(=O)c1cc(NC(=O)CCl)cn1C]",-15.579,-15.579,0,33,,,
"O=C(CCl)Nc1ccccc1C(F)(F)F [PCM-0102170, O=C(CCl)Nc1ccccc1C(F)(F)F]",-16.769,-16.769,0,0,,,
"N#CC1(NC(=O)CCl)CCCCC1 [PCM-0102993, N#CC1(NC(=O)CCl)CCCCC1]",,,8,,-16.137,-16.137,0
"Cc1cc(NC(=O)CCl)n(-c2ccccc2F)n1 [PCM-0103066, Cc1cc(NC(=O)CCl)n(-c2ccccc2F)n1]",,,0,,-15.986,-15.986,44
"O=C(CCl)Nc1ccc(F)c(F)c1 [PCM-0102328, O=C(CCl)Nc1ccc(F)c(F)c1]",-15.726,-15.726,0,31,,,

SMILES,"ln(avg k) [1, 2]","ln(avg k) [1, 3]",NUDT7 % labeling (NUDT7) [%],OTUB2 % labeling (OTUB2) [%],"ln(avg k) [1, 4]","ln(avg k) [1, 5]",OTUB2 % labeling (OTUB2; OTUB2 protein labeling) [%]
"Cc1ccccc1CN(C)C(=O)CCl [PCM-0102707, Cc1ccccc1CN(C)C(=O)CCl]",,-15.717,13,0,,-15.717,
"CCC1CN(C(=O)CCl)CCO1 (stereo not shown) [PCM-0102436, CCC1CN(C(=O)CCl)CCO1]",-15.658,-15.658,0,0,,,
"Cc1ccccc1C(=O)NC1CCN(C(=O)CCl)CC1 [PCM-0103013, Cc1ccccc1C(=O)NC1CCN(C(=O)CCl)CC1]",,,0,,-15.378,-15.378,0
"O=C(CCl)NCc1cccnc1 [PCM-0102497, O=C(CCl)NCc1cccnc1]",-17.127,-17.127,0,5,,,
"O=C(CCl)NCC1COc2ccccc2O1 (stereo not shown) [PCM-0102881, O=C(CCl)NCC1COc2ccccc2O1]",,,0,,-16.328,-16.328,39
"O=C(CCl)Nc1nc2ccccc2s1 [PCM-0102698, O=C(CCl)Nc1nc2ccccc2s1]",-15.845,-15.845,83,7,,,
"COc1ccc(C)cc1NC(=O)CCl [PCM-0103043, COc1ccc(C)cc1NC(=O)CCl]",,,6,,-16.699,-16.699,27
"Cc1ccc(C2=NN(C(=O)CCl)C(c3ccco3)C2)o1 (stereo not shown) [PCM-0102102, Cc1ccc(C2=NN(C(=O)CCl)C(c3ccco3)C2)o1]",-14.412,-14.412,20,0,,,
"COC(=O)c1cccc(NC(=O)CCl)n1 [PCM-0102977, COC(=O)c1cccc(NC(=O)CCl)n1]",,,0,,-16.790,-16.790,0
"Cc1ccccc1CC(=O)NNC(=O)CCl [PCM-0102829, Cc1ccccc1CC(=O)NNC(=O)CCl]",,,0,,-17.272,-17.272,30
"CC(NC(=O)CCl)c1ccc(Cl)cc1 (stereo not shown) [PCM-0102334, CC(NC(=O)CCl)c1ccc(Cl)cc1]",-16.367,-16.367,0,25,,,
"O=C(CCl)N1CCN(S(=O)(=O)c2ccc(Cl)s2)CC1 [PCM-0102121, O=C(CCl)N1CCN(S(=O)(=O)c2ccc(Cl)s2)CC1]",-15.220,-15.220,15,0,,,
"Cc1ccc(C)c(-n2nc(C)cc2NC(=O)CCl)c1 [PCM-0102249, Cc1ccc(C)c(-n2nc(C)cc2NC(=O)CCl)c1]",-15.689,-15.689,0,43,,,
"O=C(CCl)N1CCOC(c2ccc(F)cc2)C1 (stereo not shown) [PCM-0102615, O=C(CCl)N1CCOC(c2ccc(F)cc2)C1]",-15.513,-15.513,0,0,,,
"O=C(CCl)Nc1nnc(C2CC2)o1 [PCM-0102187, O=C(CCl)Nc1nnc(C2CC2)o1]",-17.207,-17.207,0,0,,,
"O=C(CCl)Nc1nc2ccc(F)cc2s1 [PCM-0102294, O=C(CCl)Nc1nc2ccc(F)cc2s1]",-15.413,-15.413,89,0,,,
"CN1CCN(C(=O)CCl)CC1 [PCM-0102921, CN1CCN(C(=O)CCl)CC1]",,,0,,-17.315,-17.315,0
"N#CCc1ccc(NC(=O)CCl)cc1 [PCM-0102148, N#CCc1ccc(NC(=O)CCl)cc1]",-15.302,-15.302,10,43,,,
"Cc1ccc(NC(=O)NC(=O)CCl)cc1C [PCM-0102119, Cc1ccc(NC(=O)NC(=O)CCl)cc1C]",-16.034,-16.034,9,0,,,
"CC(=O)c1ccc(N2CCN(C(=O)CCl)CC2)c(F)c1 [PCM-0102273, CC(=O)c1ccc(N2CCN(C(=O)CCl)CC2)c(F)c1]",-15.374,-15.374,20,0,,,
"Cc1nc(C2(NC(=O)CCl)CCCCC2)no1 [PCM-0102983, Cc1nc(C2(NC(=O)CCl)CCCCC2)no1]",,,10,,-17.277,-17.277,0
